From patent publication US20080063642A1, “Methods of using (+)-1,4-dihydro-7-[(3S,4S)-3-methoxy-4-(methylamino)-1-pyrrolidinyl]-4-oxo-1-(2-thiazolyl)-1,8-naphthyridine-3-carboxylic acid for treatment of certain hematologic disorders” (priority 2006, published 2008)
Values after ≈ are worked out from the molar mass of the structure shown. Where two headings read alike, the source gives them in different places. Marks after values point to notes of the source that are not given here.

Legend:
[1] = system: femoral bone marrow; test: Combination dosing SNS-595 and Ara-C (Example 5): femoral bone marrow cellularity; assay type: in vivo, nu/nu mice
From the text: Femurs were harvested for histological evaluation. The femur was placed in Streck fixative, paraffin embedded, sectioned, transferred to slides, and H&E stained (at BioPathology Sciences). Immunohistochemical slides were processed and analyzed for percent cellularity of intact bone marrow.

[2] = system: peripheral neutrophils, white blood cells, platelets; test: Combination dosing SNS-595 and Ara-C (Example 5): peripheral cytology; assay type: in vivo, nu/nu mice; details: mouse, in vivo
Procedure: At various time points described in Table 5, mice were euthanized by CO2 asphyxiation in accordance to Institutional Animal Care and Use Committee (IACUC) guidelines. Blood was collected through cardiac tap and transferred to EDTA tubes. The analysis of murine blood CBC and differential counts for samples in these tubes was conducted (at Quality Clinical Labs, Moutainview). Statistical significance was determined by one-tailed student t-test, using Welch's correction for unequal variances.

[3] = Bone marrow/cytology assay (Example 4): body weight loss; assay type: in vivo, Female CD-1 mice; details: all dose groups, 5-20 mg/kg
Procedure: (§1) Blood was drawn on days 6, 8, and 12 post initial injection for hematological analysis. Femurs were extracted on day 6 fixed in Streck and H&E stained prior to bone marrow cellularity analysis. […] At 20 mg/kg, cellularity was reduced to 7.5%, while circulating neutrophils were reduced from a pre-dose level of […] to a nadir of 51±24 cells/mL blood on day 8. Absolute neutrophil counts subsequently rebounded and soon returned to normal levels. Total WBCs also reached a nadir on day 8, but returned to normal levels.
FIGS. 5 and 6 show neutrophil and total white blood cell counts from blood samples on day 8 post initial injection. […] Body weight loss was tolerable across all dose groups.

[4] = CD-1 mouse model; q4d × 2
[5] = system: CCRF-CEM acute lymphoblastic leukemia tumor; test: CCRF-CEM xenograft model; assay type: in vivo; details: CCRF-CEM; 25 mg/kg q7d × 3, IV; 20 or 21 days after start
Procedure: CCRF-CEM acute lymphoblastic leukemia tumor lobes of 2-3 mm square were transplanted subcutaneously into nude mice. Tumors were allowed to grow to approximately 8-20 mm in diameter. […] Acceptable toxicity was defined as a mean group weight loss of 30% or less and not more than one toxic death among 6 treated animals. Anti-tumor activities of the drugs were assessed 20 or 21 days after the start of administration. FIGS. 1-2 and Table 2 provides data for tumor inhibition rate (IR) and survival ratio in the CCRF-CEM and LM3-Jck xenograft models.

[6] = system: LM3-Jck human malignant lymphoma tumor; test: LM3-Jck xenograft model; assay type: in vivo; details: for IR (%) tumor inhibition rate: LM3-JcK, 21 days after start
Procedure: LM3-Jck human malignant lymphoma tumor lobes (2-3 mm square) were transplanted subcutaneously into nude mice. Tumors were allowed to grow to approximately 7-14 mm in diameter. […] Acceptable toxicity was defined as a mean group weight loss of 30% or less and not more than one toxic death among 6 treated animals. Anti-tumor activities of the drugs were assessed 21 days after the start of administration.

[7] = system: bone marrow; test: Bone marrow/cytology assay (Example 4): bone marrow cellularity; assay type: in vivo, Female CD-1 mice
Procedure: as §1

[8] = system: circulating neutrophils, WBCs, platelets; parameters: species or system Female CD-1 mice; details: mouse, in vivo
Procedure: as §1

[9] = system: HL-60 (promyelocytic leukemia); test: MTT cell viability assay, HL-60; assay type: cell-based; details: Homo sapiens, MTT after 72 hours
Procedure: (§2) The following cell lines were used in this assay: HL-60 (promyelocytic leukemia); Jurkat (T cell leukemia); CCRF-CEM (lymphoblastic leukemia); CEM/C2 (camptothecan resistant derivative of CCRF-CEM).
(§3) Cells were seeded in 96 wells plates at 3000 cells per well and incubated for 16 hours. Compound dilutions were performed in DMSO from 10 mM with 3 fold dilutions. Titrations were diluted 1:100 in media to achieve final compound concentrations. The 96 well plates were aspirated and compound dilutions in media were added ([…]). MTT analysis was carried out after 72 hours of incubation at 37° C. Briefly, […] of MTT solution was added to each well. Cells were incubated at 37° C. for 1-2 hours. Cells were lysed with the addition of […] cell lysis buffer and MTT was solubilized overnight at 37° C. Plates were read on a spectromax machine with an absorbance measurement at […]. IC50's were calculated (data provided in Table 1) using regression analysis within GraphPad Prism.

[10] = system: myeloid cell lineages in bone marrow; test: Monotherapy and combination with Ara-C (Example 6): bone marrow smears, differential counts; assay type: in vivo, Female CD-1 mice; details: SNS-595 treated animals; Day 6
Procedure: Combination: […] Blood was analyzed at Quality Control Labs (Mountain View, Calif.) for complete blood count and differential count. Bone marrow smears from femurs on Day 6 and Day 12 were prepared and geimsa stained for differential counts. Femurs were also placed in Streck fixative, processed, sectioned and H&E stained. Femur and bone marrow smears were analyzed at BioPathology Sciences (South San Francisco, Calif.) for total cellularity and differential count.

[11] = system: CCRF-CEM (lymphoblastic leukemia); test: MTT cell viability assay, CCRF-CEM; assay type: cell-based; details: Homo sapiens, MTT after 72 hours
Procedure: as §2, §3

[12] = system: bone marrow; test: Monotherapy and combination with Ara-C (Example 6): bone marrow total cellularity; assay type: in vivo, Female CD-1 mice
Procedure: Blood was analyzed at Quality Control Labs (Mountain View, Calif.) for complete blood count and differential count. Bone marrow smears from femurs on Day 6 and Day 12 were prepared and geimsa stained for differential counts. Femurs were also placed in Streck fixative, processed, sectioned and H&E stained. Femur and bone marrow smears were analyzed at BioPathology Sciences (South San Francisco, Calif.) for total cellularity and differential count. […] The compounds were administered on Day 0 and Day 4.

[13] = mouse, in vivo, iv
Procedure: The effects of dosing were studied on changes in body weight, peripheral cytology, and femoral bone marrow cellularity over time as described below.
Before beginning the study, all animals were allowed to acclimatize for 3 days from shipping related stress and the health of the mice was assessed daily by observation. Purified water (reverse osmosis) and irradiated food (PicoLab Rodent Diet 20, #5053; Dean's Animal Feeds, San Carlos, Calif.) were provided ad libitum, and the animals were kept on a 12 hour light and dark cycle.

[14] = system: Jurkat (T cell leukemia); test: MTT cell viability assay, Jurkat; assay type: cell-based; details: Homo sapiens, MTT after 72 hours
Procedure: as §2, §3

[15] = system: CEM/C2 (camptothecan resistant derivative of CCRF-CEM); test: MTT cell viability assay, CEM/C2; assay type: cell-based; details: Homo sapiens, MTT after 72 hours
Procedure: as §2, §3

[16] = Group 4: SNS-595 15 mg/kg IV q4d × 2

CN[C@H]1CN(c2ccc3c(=O)c(C(=O)O)cn(-c4nccs4)c3n2)C[C@@H]1OC [SNS-595, (+)-1,4-dihydro-7-[(3S,4S)-3-methoxy-4-(methylamino)-1-pyrrolidinyl]-4-oxo-1-(2-thiazolyl)-1,8-naphthyridine-3-carboxylic acid]
total cellularity, femur cross section of representative animal ([1]; Day 6, SNS-595 5 mg/kg q4d ×2 IV, Animal #23): 60% | total cellularity, femur cross section of representative animal ([1]; Day 6, SNS-595 10 mg/kg q4d ×2 IV, Animal #44): 50% | total cellularity, femur cross section of representative animal ([1]; Day 6, SNS-595 15 mg/kg q4d ×2 IV, Animal #63): 20% | total cellularity, femur cross section of representative animal ([1]; Day 12, SNS-595 15 mg/kg q4d ×2 IV, Animal #73): 100% | Average Total Cellularity Day 6 ([1]; Group 2: SNS-595 5 mg/kg IV q4d × 2): 70% | Average Total Cellularity Day 6 ([1]; Group 3: SNS-595 10 mg/kg IV q4d × 2): 56% | Average Total Cellularity Day 6 [1, 16]: 26% | Average Total Cellularity Day 12 [1, 16]: 100% | reduction in cellularity ([1]; SNS-595 10 mg/kg IV single agent): 44% | bone marrow cellularity, dose response ([1]; SNS-595 single agent 5, 10, 15 mg/kg): dose-dependent reduction in bone marrow cellularity | circulating white blood cells, dose response [2]: dose-dependent reduction | day by which neutrophils returned to normal levels [2]: ≤ 12 days | day by which platelets returned to normal levels [2]: ≤ 12 days | number of neutrophils versus vehicle group [2]: significantly lower than the vehicle group | recovery of white blood cells [2]: failed to return to normal levels by day 18 | number of platelets versus vehicle group ([2]; 5 mg/kg): not significantly decrease | number of circulating white blood cells versus vehicle group ([2]; 10 mg/kg): significantly lower than the vehicle group | number of white blood cells versus vehicle group ([2]; 15 mg/kg): significantly lower than the vehicle group | body weight loss [3]: tolerable | maximum tolerated dose (MTD) [4]: SNS-595 20 mg/kg q4d × 2* | IR (%) tumor inhibition rate [5]: 98.1* % | IR (%) tumor inhibition rate ([6]; 20 mg/kg q7d × 3, IV): 98.9* % | IR (%) tumor inhibition rate ([6]; 25 mg/kg q7d × 3, IV): 98.5* % | antitumor activity ([6]; LM-3 Jck malignant lymphoma, 20 and 25 mg/kg): complete tumor regressions | bone marrow cellularity ([7]; 20 mg/kg IV Day 0 and Day 4, femurs day 6): 7.5% | bone marrow at 12 days post initial injection ([7]; 20 mg/kg, day 12): bone marrow rebound | bone marrow cellularity, dose response ([7]; 5, 10, 15, 20 mg/kg IV Day 0 and Day 4, two days after second administration): dose-dependent reduction in cellularity | platelet response [8]: minor platelet response | day of total WBC nadir ([8]; iv): 8 days | IC50 [9]: 0.053 µg/mL (≈ 0.132 µM) | immature neutrophils in bone marrow smears [10]: significant increase | IC50 [11]: 0.018 µg/mL (≈ 0.0448 µM) | Total Cellularity (Avg) Exp #2 ([12]; SNS-595 10 mg/kg q4d × 2): 54% | Total Cellularity (Avg) Exp #1 ([12]; SNS-595 10 mg/kg q4d × 2, two days after completion of treatment, 10 mg/kg): 56% | Total Cellularity (Avg) Exp #2 ([12]; SNS-595 20 mg/kg q4d × 2): 18% | % of Body Wt Nadir ([13]; 5 mg/kg): 0% | Day of Body Wt Nadir ([13]; 5 mg/kg): 0 days | % of Body Wt Nadir ([13]; 10 mg/kg): 0% | Day of Body Wt Nadir ([13]; 10 mg/kg): 0 days | % of Body Wt Nadir ([13]; 15 mg/kg): −2.8% | Day of Body Wt Nadir ([13]; 15 mg/kg): 7 days | IC50 [14]: 0.023 µg/mL (≈ 0.0573 µM) | IC50 [15]: 0.01 µg/mL (≈ 0.0249 µM)
